± gives the expanded uncertainty stated by the source.
Assay: molar heat capacity at saturation pressure
Details: Glass, Small (less than 1 g) adiabatic calorimetry

CCC[n+]1ccn(C)c1.[Br-] [1-methyl-3-propylimidazolium bromide]
molar heat capacity (80.55 K): 98.61 ± 0.59 J/K/mol
molar heat capacity (82.89 K): 100.33 ± 0.6 J/K/mol
molar heat capacity (84.9 K): 101.67 ± 0.61 J/K/mol
molar heat capacity (86.92 K): 103.14 ± 0.62 J/K/mol
molar heat capacity (88.94 K): 104.66 ± 0.62 J/K/mol
molar heat capacity (90.96 K): 106.14 ± 0.63 J/K/mol
molar heat capacity (92.98 K): 107.59 ± 0.63 J/K/mol
molar heat capacity (95 K): 109.05 ± 0.64 J/K/mol
molar heat capacity (97.02 K): 110.46 ± 0.64 J/K/mol
molar heat capacity (99.05 K): 111.82 ± 0.65 J/K/mol
molar heat capacity (101.08 K): 113.17 ± 0.65 J/K/mol
molar heat capacity (103.11 K): 114.53 ± 0.66 J/K/mol
molar heat capacity (105.14 K): 115.8 ± 0.66 J/K/mol
molar heat capacity (107.17 K): 117.19 ± 0.67 J/K/mol
molar heat capacity (109.2 K): 118.42 ± 0.67 J/K/mol
molar heat capacity (111.24 K): 119.73 ± 0.68 J/K/mol
molar heat capacity (113.29 K): 120.92 ± 0.68 J/K/mol
molar heat capacity (115.33 K): 122.2 ± 0.69 J/K/mol
molar heat capacity (117.37 K): 123.41 ± 0.69 J/K/mol
molar heat capacity (119.41 K): 124.68 ± 0.7 J/K/mol
molar heat capacity (121.46 K): 125.82 ± 0.7 J/K/mol
molar heat capacity (123.5 K): 127.01 ± 0.71 J/K/mol
molar heat capacity (125.55 K): 128.16 ± 0.71 J/K/mol
molar heat capacity (127.6 K): 129.31 ± 0.72 J/K/mol
molar heat capacity (129.65 K): 130.51 ± 0.72 J/K/mol
molar heat capacity (131.7 K): 131.69 ± 0.73 J/K/mol
molar heat capacity (133.75 K): 132.94 ± 0.73 J/K/mol
molar heat capacity (135.8 K): 134.11 ± 0.74 J/K/mol
molar heat capacity (137.86 K): 135.27 ± 0.74 J/K/mol
molar heat capacity (139.91 K): 136.51 ± 0.75 J/K/mol
molar heat capacity (141.97 K): 137.66 ± 0.75 J/K/mol
molar heat capacity (144.02 K): 138.89 ± 0.75 J/K/mol
molar heat capacity (146.09 K): 140.08 ± 0.76 J/K/mol
molar heat capacity (148.15 K): 141.29 ± 0.77 J/K/mol
molar heat capacity (150.21 K): 142.47 ± 0.77 J/K/mol
molar heat capacity (152.27 K): 143.7 ± 0.78 J/K/mol
molar heat capacity (154.33 K): 144.86 ± 0.78 J/K/mol
molar heat capacity (156.39 K): 146.04 ± 0.78 J/K/mol
molar heat capacity (158.46 K): 147.24 ± 0.79 J/K/mol
molar heat capacity (160.52 K): 148.42 ± 0.79 J/K/mol
molar heat capacity (162.58 K): 149.59 ± 0.8 J/K/mol
molar heat capacity (164.65 K): 150.76 ± 0.8 J/K/mol
molar heat capacity (166.71 K): 151.98 ± 0.81 J/K/mol
molar heat capacity (168.78 K): 153.15 ± 0.81 J/K/mol
molar heat capacity (170.84 K): 154.38 ± 0.82 J/K/mol
molar heat capacity (172.91 K): 155.61 ± 0.82 J/K/mol
molar heat capacity (174.97 K): 156.8 ± 0.83 J/K/mol
molar heat capacity (177.04 K): 158.04 ± 0.83 J/K/mol
molar heat capacity (179.11 K): 159.26 ± 0.84 J/K/mol
molar heat capacity (181.18 K): 160.5 ± 0.84 J/K/mol
molar heat capacity (183.25 K): 161.87 ± 0.85 J/K/mol
molar heat capacity (185.32 K): 163.21 ± 0.85 J/K/mol
molar heat capacity (187.39 K): 164.56 ± 0.86 J/K/mol
molar heat capacity (189.46 K): 165.92 ± 0.86 J/K/mol
molar heat capacity (191.53 K): 167.36 ± 0.87 J/K/mol
molar heat capacity (193.61 K): 168.95 ± 0.88 J/K/mol
molar heat capacity (195.69 K): 170.66 ± 0.88 J/K/mol
molar heat capacity (197.77 K): 172.38 ± 0.89 J/K/mol
molar heat capacity (199.86 K): 174.39 ± 0.9 J/K/mol
molar heat capacity (201.95 K): 176.91 ± 0.91 J/K/mol
molar heat capacity (202.67 K): 177.34 ± 0.91 J/K/mol
molar heat capacity (204.04 K): 179.87 ± 0.92 J/K/mol
molar heat capacity (205.14 K): 181.79 ± 0.93 J/K/mol
molar heat capacity (206.12 K): 184.42 ± 0.94 J/K/mol
molar heat capacity (207.25 K): 188.13 ± 0.96 J/K/mol
molar heat capacity (208.16 K): 192.2 ± 0.98 J/K/mol
molar heat capacity (209.29 K): 200.7 ± 1 J/K/mol
molar heat capacity (210.11 K): 209.2 ± 1.1 J/K/mol
molar heat capacity (211.19 K): 228.95 ± 1.2 J/K/mol
molar heat capacity (211.92 K): 238.53 ± 1.2 J/K/mol
molar heat capacity (213.01 K): 255.28 ± 1.2 J/K/mol
molar heat capacity (213.79 K): 257.19 ± 1.2 J/K/mol
molar heat capacity (215.01 K): 258.34 ± 1.2 J/K/mol
molar heat capacity (215.82 K): 258.85 ± 1.2 J/K/mol
